Measurements taken from EPA's ToxValDB 9.5 (doi:10.2903/j.efsa.2008.125r).
Values after ≈ are worked out from the molar mass of the structure shown.

Key:
[1] = system: Colinus virginianus; conditions: for LD50: acute, oral, mortality
[2] = system: Coturnix japonica; conditions: acute, oral, mortality
[3] = system: Anas platyrhynchos; conditions: for LD50: oral, mortality
[4] = system: Canidae; conditions: chronic; duration: 1 years; oral; Dog Other; hematological
[5] = system: Tagia sp.; conditions: acute; duration: 14 days; mortality
[6] = system: Typhlodromus pyri
[7] = system: Oncorhynchus mykiss; conditions: acute; duration: 96 hours; mortality
[8] = system: Daphnia magna; conditions: chronic/long-term; duration: 21 days; reproduction
[9] = system: Apis mellifera; conditions: acute; duration: 48 hours; oral; unspecified; mortality
[10] = system: Rattus norvegicus

Q: What does the source list for `CCCCCCCCCCCCC1=C(OC(C)=O)C(=O)c2ccccc2C1=O` [Acequinocyl]?
A: LD50 ([1]; diet): > 159 mg/kg; LD50 [1]: > 300 mg/kg; NOEL ([1]; reproduction developmental): 217 mg/kg-day; LD50 ([2]; diet): > 847 mg/kg; LD50 [2]: > 1940 mg/kg; LD50 ([3]; acute, unspecified): > 1940 mg/kg; NOEL ([3]; reproductive): 7.48 mg/kg; LD50 ([3]; short-term, feed): > 1340 mg/kg; NOAEL [4]: 5 mg/kg-day; LC50 [5]: > 1000 mg/kg; LEL ([6]; acute, duration: 7 days, mortality): 300 g/ha; LEL ([6]; not reported, reproduction): 300 g/ha; LC50 [7]: 65 mg/L (≈ 169 µM); NOEC [8]: 0.00098 mg/L; LD50 [9]: > 100 µg/piece; NOAEL ([10]; acute, oral, hematological): 8 mg/kg-day; LD50 ([10]; acute, oral, mortality): > 4860 mg/kg; NOAEL ([10]; chronic, duration: 2 years, clinical signs): 2.3 mg/kg-day; NOAEL ([10]; reproduction developmental, clinical signs): 6.9 mg/kg-day
